# Assay results from US20220249599A1, “TREATMENT OF IMPLANTS WITH ENGINEERED ANTIMICROBIAL AMPHIPHILIC PEPTIDES” (priority 2018, published 2022).
# Values joined by “and” are separate entries in the source; they are usually repeats but may differ in a detail not shown here. Identical values can stand only once. Like-named read-outs stand apart in the source and are kept apart here. Bridge positions count the residues as written; N and C are the ends. Square brackets hold non-standard residues; d marks the D form. Ends that are not written are not given here. Peptide text beside a SMILES is read from it. * marks the point of attachment. X1 = CC[C@H](C)CCCCC(=O)*; Dab = NCC[C@H](N)C(=O)O
# Legend:
# [1] = tested on: Acinetobacter baumannii ATCC 19606 (non-MDR); format: cell-based; settings: Acinetobacter baumannii ATCC 19606 (non-MDR)
# Description: (§1) Each peptide was formulated in PBS buffer prior to testing. Peptides of SEQ ID NO:5 and SEQ ID NO:8 were brought up in 100% DMSO with 0.002% polysorbate-80 at 1.28 mg/mL (40× the highest final test concentration of 32 mcg/mL). Final test concentration of DMSO was 2.5% in the assay at the first dilution for those two compounds.
# (§2) Mueller Hinton II broth (MHB II; BD; Lot Nos. 6258541 and 7143896) was used for MIC testing of aerobic organisms. 0.002% polysorbate 80 (P80) was added to the test medium.
# (§3) MIC values were determined using a broth microdilution procedure described by CLSI (1, 3). Automated liquid handlers (Multidrop 384, Labsystems, Helsinki, Finland; Biomek 2000 and Biomek FX, Beckman Coulter, Fullerton Calif.) were used to conduct serial dilutions and liquid transfers.
# (§4) To prepare the drug mother plates, which would provide the serial peptide dilutions for the replicate daughter plates, the wells of columns 2-12 of standard 96-well microdilution plates (Costar 3795) were filled with 150 µl of the designated diluent for each row of peptide.
# (§5) The test articles and comparator compounds ([…] at 40× the highest concentration to be tested) were dispensed into the appropriate wells in column 1. The Biomek 2000 was then used to make 2-fold serial dilutions in the mother plates from column 1 through column 11. The wells of Column 12 contained no drug and served as the organism growth control wells for the assay.
# (§6) The daughter plates were loaded with 185 μL per well of MHB II using the Multidrop 384. The daughter plates were completed on the Biomek FX instrument which transferred 5 uL of peptide solution from each well of a mother plate to the corresponding well of each daughter plate in a single step. A standardized inoculum of each test organism was prepared per CLSI methods. The inoculum for each organism was dispensed into sterile reservoirs divided by length (Beckman Coulter), and the Biomek 2000 was used to inoculate the plates. Daughter plates were placed on the Biomek 2000 work surface in reverse orientation so that inoculation took place from low to high drug concentration.
# (§7) Plates were stacked 3-4 high, covered with a lid on the top plate, placed in plastic bags, and incubated at 35° C. for 16 to 20 hrs. Following incubation, the microplates were removed from the incubator and viewed from the bottom using a plate viewer. […] The MIC was read and recorded as the lowest concentration of peptide that inhibited visible growth of the organism.
# [2] = tested on: Enterococcus faecalis ATCC 29212 (VSE; QC); format: cell-based; settings: Enterococcus faecalis ATCC 29212 (VSE; QC)
# Description: as §1, §2, §3, §4, §5, §6, §7
# [3] = tested on: Enterococcus faecalis ATCC 700802 (V583 VRE); format: cell-based; settings: Enterococcus faecalis ATCC 700802 (V583 VRE)
# Description: as §1, §2, §3, §4, §5, §6, §7
# [4] = tested on: Enterococcus faecium ATCC 51559 (VRE); format: cell-based; settings: Enterococcus faecium ATCC 51559 (VRE)
# Description: as §1, §2, §3, §4, §5, §6, §7
# [5] = tested on: Escherichia coli ATCC 25922 (QC); format: cell-based; settings: Escherichia coli ATCC 25922 (QC)
# Description: as §1, §2, §3, §4, §5, §6, §7
# [6] = tested on: Escherichia coli ATCC 35218 (ESBL); format: cell-based; settings: Escherichia coli ATCC 35218 (ESBL)
# Description: as §1, §2, §3, §4, §5, §6, §7
# [7] = tested on: Escherichia coli ATCC BAA-2471 (NDM-1); format: cell-based; settings: Escherichia coli ATCC BAA-2471 (NDM-1)
# Description: as §1, §2, §3, §4, §5, §6, §7
# [8] = tested on: Klebsiella pneumoniae ATCC BAA-1705 (KPC); format: cell-based; settings: Klebsiella pneumoniae ATCC BAA-1705 (KPC)
# Description: as §1, §2, §3, §4, §5, §6, §7
# [9] = tested on: Pseudomonas aeruginosa ATCC 27853 (non-MDR; QC); format: cell-based; settings: Pseudomonas aeruginosa ATCC 27853 (non-MDR; QC)
# Description: as §1, §2, §3, §4, §5, §6, §7
# [10] = tested on: Pseudomonas aeruginosa ATCC BAA-2109 (MDR); format: cell-based; settings: Pseudomonas aeruginosa ATCC BAA-2109 (MDR)
# Description: as §1, §2, §3, §4, §5, §6, §7
# [11] = tested on: Staphylococcus aureus ATCC 29213 (MSSA; QC); format: cell-based; settings: Staphylococcus aureus ATCC 29213 (MSSA; QC)
# Description: as §1, §2, §3, §4, §5, §6, §7
# [12] = tested on: Staphylococcus aureus ATCC 43300 (MRSA); format: cell-based; settings: Staphylococcus aureus ATCC 43300 (MRSA)
# Description: as §1, §2, §3, §4, §5, §6, §7
# [13] = tested on: Staphylococcus aureus NRS382 (USA100; HA-MRSA); format: cell-based; settings: Staphylococcus aureus NRS382 (USA100; HA-MRSA)
# Description: as §1, §2, §3, §4, §5, §6, §7
# [14] = tested on: Streptococcus agalactiae ATCC 13813; format: cell-based
# Description: as §1, §2, §3, §4, §5, §6, §7
# [15] = tested on: Streptococcus pneumoniae ATCC 49619 (QC); format: cell-based; settings: Streptococcus pneumoniae ATCC 49619 (QC)
# Description: as §1, §2, §3, §4, §5, §6, §7
# [16] = tested on: Streptococcus pyogenes ATCC 49399; format: cell-based; settings: Streptococcus pyogenes ATCC 49399
# Description: as §1, §2, §3, §4, §5, §6, §7
# [17] = tested on: Acinetobacter baumannii ATCC BAA-1797 (MDR); assay: microbe, parasite or virus in culture; format: cell-based; settings: Acinetobacter baumannii ATCC BAA-1797 (MDR)
# Description: as §1, §2, §3, §4, §5, §6, §7
# [18] = tested on: Acinetobacter spp. (n = 104); format: cell-based; settings: Acinetobacter spp. (n = 104); for % R (isolates resistant): CLSI breakpoints
# Description: (§8) The clinical isolates were obtained from USA hospitals. […] Plates were incubated at 35° C. overnight.
# [19] = tested on: Escherichia coli (n = 101); format: cell-based; settings: Escherichia coli (n = 101); for % R (isolates resistant): CLSI breakpoints, colistin EUCAST
# Description: as §8
# [20] = tested on: Klebsiella pneumoniae (n = 101); format: cell-based; settings: Klebsiella pneumoniae (n = 101); for % R (isolates resistant): CLSI breakpoints, colistin EUCAST
# Description: as §8
# [21] = tested on: Pseudomonas aeruginosa (n = 109); format: cell-based; settings: Pseudomonas aeruginosa (n = 109); for % R (isolates resistant): CLSI breakpoints
# Description: as §8
# [22] = tested on: Enterobacter spp. (n = 102); format: cell-based, Enterobacter aerogenes and E. cloacae; settings: Enterobacter spp. (n = 102); for % R (isolates resistant): CLSI breakpoints, colistin EUCAST
# Description: as §8
# [23] = tested on: P. aeruginosa strains (PAO1 and 2 clinical isolates); format: cell-based; settings: three P. aeruginosa strains, 0.5×MIC exposure
# Excerpt: Each antibiotic was compared for their propensity to select for bacterial resistance phenotypes in vitro.
# [24] = tested on: Escherichia coli ATCC 25922 (QC); settings: cited from earlier work
# [25] = tested on: Pseudomonas aeruginosa ATCC 27853 (non-MDR; QC); settings: cited from earlier work
# [26] = macaques, 1.0 mg/kg, 30 min IV infusion, one line per individual monkey (4000, 4001, 4002)
# Description: Animals will be obtained from the Test Facility's colony of adult male cynomolgous monkeys (Macaca fascicularis) of Chinese origin. Animals will be weighed prior to dosing.
# Intravenous administration will be via 30 minute infusion into a temporary percutaneous catheter placed into a saphenous vein. Prior to and following dose administration, the catheter will be flushed with 0.5 mL saline prior to removal. All dosing syringes will be weighed prior to and following dosing.
# Serial blood samples will be collected via femoral vein (cephalic or saphenous, as necessary). Approximately 1 mL blood samples will be collected into K2EDTA tubes.
# Blood samples will be collected into K2EDTA tubes and stored on wet ice. Whole blood will be processed to plasma by centrifugation (2400-2700 rpm at 5° C.) within 30 minutes of collection. Plasma samples will be split into 2 equal aliquots and stored at −80° C. until analysis.
# The peptide will be purified from plasma samples from each macaque using a cation exchange-based solid-phase extraction process. Prior to extraction, a known concentration of a mass-adjusted internal standard (IS) will be added to assess recovery and allow for quantitation. Purified samples will be further subjected to high-performance liquid chromatography (HPLC) using C18 300 or 130 angstrom columns prior to MS/MS analysis. Multiple charge states will be observed by MS, so MS/MS will be employed to enable multiple reaction monitoring (MRM) analyses to determine the most MRM transitions with the highest signal-to-noise gain. Compound plasma concentrations will be determined by comparing to and compensating with co-purified IS peak intensity and validated calibrated standard curves.
# Toxicokinetic parameters will be calculated using non-compartmental methods as implemented in the Phoenix® WinNonlin® ver. 6.3 comprehensive TK/PK analysis software program (Pharsight Corporation; Mountain View, Calif.) using an IV infusion model. […] Values below the lower limit of quantitation (BLQ) will be assigned a value of zero for the toxicokinetic calculations. […]
# [27] = tested on: Staphylococcus aureus ATCC 29213 (MSSA; QC); settings: cited from earlier work
# [28] = tested on: Streptococcus pneumoniae ATCC 49619 (QC); settings: cited from earlier work
# [29] = tested on: Enterococcus faecalis ATCC 29212 (VSE; QC); settings: cited from earlier work
# [30] = tested on: S. aureus strain SH1000 biofilms; assay: In vitro biofilm disruption on stainless steel rods; format: cell-based; settings: S. aureus SH1000, 10×MIC, up to 24 hours
# Excerpt: FIG. 15 depicts the effect of administration of SEQ ID NO:1 and cefazolin on biofilm maintenance. […] SEQ ID NO:1 eliminated mature implant biofilms on a model strain of S. aureus, SH1000.
# [31] = tested on: S. aureus; assay: Periprosthetic joint infection mouse model, implant biofilm CFU burden; format: in vivo; settings: intraperitoneal delivery, versus untreated control mice
# Description: Periprosthetic joint infection was modeled in a mouse by placing an intra-articular K-wire through the medullary canal of the proximal femur followed by intra-articular inoculation with S. aureus. Animals were treated systemically with an intraperitoneal delivery of cefazolin, rifampin, or the exemplary peptide of SEQ ID NO:1. Intraperitoneal delivery was chosen due to technical difficulties associated with intravenous delivery. Implant sonication and proximal femur homogenate were used to quantify viable bacteria.
compound,measurement,setting,value
"CC[C@H](C)CCCCC(=O)N[C@@H](CCN)C(=O)N[C@H](C(=O)N[C@@H](CCN)C(=O)N[C@H]1CCNC(=O)[C@H]([C@@H](C)O)NC(=O)[C@H](CCN)NC(=O)[C@H](CCN)NC(=O)[C@H](CC(C)C)NC(=O)[C@@H](CC(C)C)NC(=O)[C@H](CCN)NC1=O)[C@@H](C)O [Colistin, reference compound] (X1-[Dab]T[Dab][Dab][Dab][dL]L[Dab][Dab]T; lactam 4-C)",MIC,[1],0.25 mg/L
same,MIC,[2],>32 mg/L
same,MIC,[3],>32 mg/L
same,MIC,[4],>32 mg/L
same,MIC,[5],0.12 mg/L
same,MIC,[6],0.12 mg/L
same,MIC,[7],0.06 mg/L
same,MIC,[8],0.12 mg/L
same,MIC,[9],0.25 mg/L
same,MIC,[10],0.12 mg/L
same,MIC,[11],>32 mg/L
same,MIC,[12],>32 mg/L
same,MIC,[13],>32 mg/L
same,MIC,[14],>32 mg/L
same,MIC,[15],>32 mg/L
same,MIC,[16],>32 mg/L
same,MIC,[17],0.5 mg/L
same,MIC50,[18],0.25 mg/L
same,MIC90,[18],>32 mg/L
same,Mode (MIC),[18],0.25 mg/L
same,% R (isolates resistant),[18],20.2%
same,MIC50,[19],0.12 mg/L
same,MIC90,[19],0.12 mg/L
same,MIC range,[19],≤0.03 to 0.5 mg/L
same,Mode (MIC),[19],0.12 mg/L
same,% R (isolates resistant),[19],0%
same,MIC50,[20],0.12 mg/L
same,MIC90,[20],32 mg/L
same,Mode (MIC),[20],0.12 mg/L
same,% R (isolates resistant),[20],27.7%
same,MIC50,[21],0.5 mg/L
same,MIC90,[21],1 mg/L
same,Mode (MIC),[21],0.5 mg/L
same,% R (isolates resistant),[21],7.3%
same,MIC50,[22],0.12 mg/L
same,MIC90,[22],0.25 mg/L
same,Mode (MIC),[22],0.12 mg/L
same,% R (isolates resistant),[22],5.8%
same,Time to development of resistance (fold MIC>10),[23],13 days
same,MIC range in parentheses below the MIC (QC range),[24],(0.25-2) μg/mL
same,MIC range in parentheses below the MIC (QC range),[25],(0.5-4) μg/mL
KKTHTKTKKTHTKTKKTHTK [SEQ ID NO: 13],Dose Normalized Cmax,[26],5000 and 7000 and 6000
C[C@@H](O)[C@H]1C(=O)N2C(C(=O)O)=C(S[C@@H]3CN[C@H](C(=O)N(C)C)C3)[C@H](C)[C@H]12 [Meropenem],MIC,"[17]; ATCCBAA1797, read-out: MIC",> 4 mg/L
same,% R (isolates resistant),[18],65.4%
same,% R (isolates resistant),[19],1%
same,% R (isolates resistant),[20],50.5%
same,% R (isolates resistant),[21],20.2%
same,% R (isolates resistant),[21]; listed as meropenem,20%
same,% R (isolates resistant),[22],3.9%
same,MIC range in parentheses below the MIC (QC range),[27],(0.03-0.12) μg/mL
same,MIC range in parentheses below the MIC (QC range),[28],(0.03-0.25) μg/mL
same,MIC range in parentheses below the MIC (QC range),[29],(2-8) μg/mL
same,MIC range in parentheses below the MIC (QC range),[24],(0.008-0.06) μg/mL
same,MIC range in parentheses below the MIC (QC range),[25],(0.12-1) μg/mL
"Cc1nnc(SCC2=C(C(=O)O)N3C(=O)[C@@H](NC(=O)Cn4cnnn4)[C@H]3SC2)s1 [Cefazolin, cefazolin]",Reduction of mature biofilm on stainless steel rods,[30],did not achieve a three-log reduction
same,Reduction of implant biofilm CFU burden (sonicate culture),[31],"one log reduction in viable bacteria as compared to untreated controls, but this reduction was not statistically significant"
